Experimental data as given in patent US11866414B2, “Substituted heterocyclic compounds” (BRISTOL-MYERS SQUIBB COMPANY, priority 2021, dated 2024).

Experiments:
[1] = test system: IFNα-induced STAT phosphorylation (pSTAT5); test: IFNα-induced STAT phosphorylation in human whole blood; assay type: cell-based; details: 1 h compound, 1000 U/mL IFNα A/D 15 min, CD3 positive population, read-out: Human Whole blood IFNa pSTAT5 IC50
Procedure: IFNα-Induced STAT Phosphorylation in Human Whole Blood
After an hour long incubation with compound, human whole blood (drawn with ACD-A as anticoagulant) was stimulated with 1000 U/mL recombinant human IFNα A/D (R&D Systems 11200-2) for 15 min. The stimulation was stopped by adding Fix/Lyse buffer (BD 558049). Cells were stained with a CD3 FITC antibody (BD 555916), washed, and permeabilized on ice using Perm III buffer (BD 558050). Cells were then stained with an Alexa-Fluor 647 pSTAT5 (pY694) antibody (BD 612599) for 60 min prior to analysis on the iQue Plus. The amount of pSTAT5 expression was quantitated by median fluorescence intensity after gating on the CD3 positive population.

in vitro = details: human, Caco-2, pH 7.4

SMILES | IC50 [1] [µM] | Papp A→B at 2 h, 3 μM (in vitro) [×10⁻⁶ cm/s] | efflux ratio at 2 h, 3 μM (in vitro) | Papp B→A at 2 h, 3 μM (in vitro) [×10⁻⁶ cm/s]
CNC(=O)c1nnc(NC(=O)C2CC2)cc1Nc1cccc(-c2cnn(CCF)n2)c1OC [Example 2, 6-cyclopropaneamido-4-({3-[2-(2-fluoroethyl)-2H-1,2,3-triazol-4-yl]-2-methoxyphenyl}amino)-N—(^2H3)methylpyridazine-3-carboxamide] | 0.03 | – | – | –
CNC(=O)c1nnc(NC(=O)[C@@H]2CC23CC3)cc1Nc1cccc(-c2cnn(C)n2)c1OC [Example 13, 4-{[2-methoxy-3-(2-methyl-2H-1,2,3-triazol-4-yl)phenyl]amino}-N—(^2H3)methyl-6-[(1R)-spiro[2.2]pentane-1-amido]pyridazine-3-carboxamide] | 0.17 | – | – | –
CCn1ncc(-c2cc(Cl)cc(Nc3cc(NC(=O)C4CC4)nnc3C(=O)NC)c2OC)n1 [Example 15, 4-{[5-chloro-3-(2-ethyl-2H-1,2,3-triazol-4-yl)-2-methoxyphenyl]amino}-6-cyclopropaneamido-N—(^2H3)methylpyridazine-3-carboxamide] | 0.47 | – | – | –
CNC(=O)c1nnc(NC(=O)C2CC2)cc1Nc1ccc(F)c(-c2cnn(C3CC3)n2)c1OC [Example 16, 6-cyclopropaneamido-4-{[3-(2-cyclopropyl-2H-1,2,3-triazol-4-yl)-4-fluoro-2-methoxyphenyl]amino}-N—(^2H3)methylpyridazine-3-carboxamide] | 1.4 | – | – | –
CNC(=O)c1nnc(NC(=O)N2CCC2)cc1Nc1cccc(-c2cnn(C)n2)c1OC [Example 51, 6-[(azetidine-1-carbonyl)amino]-4-{[2-methoxy-3-(2-methyl-2H-1,2,3-triazol-4-yl)phenyl]amino}-N—(^2H3)methylpyridazine-3-carboxamide] | 0.11 | – | – | –
CNC(=O)c1nnc(NC(=O)C2CC2)cc1Nc1cccc(-c2cnn(C3COC3)n2)c1OC [Example 53, 6-cyclopropaneamido-4-({2-methoxy-3-[2-(oxetan-3-yl)-2H-1,2,3-triazol-4-yl]phenyl}amino)-N—(^2H3)methylpyridazine-3-carboxamide] | 0.17 | – | – | –
CNC(=O)c1nnc(NC(=O)C2CC2)cc1Nc1cccc(-c2cnn(C3CCC3)n2)c1OC [Example 54, 4-{[3-(2-cyclobutyl-2H-1,2,3-triazol-4-yl)-2-methoxyphenyl]amino}-6-cyclopropaneamido-N—(^2H3)methylpyridazine-3-carboxamide] | 0.49 | – | – | –
CNC(=O)c1nnc(NC(=O)C2CC2)cc1Nc1ccc(C2CC2)c(-c2cnn(C)n2)c1OC [Example 55, 6-cyclopropaneamido-4-{[4-cyclopropyl-2-methoxy-3-(2-methyl-2H-1,2,3-triazol-4-yl)phenyl]amino}-N—(^2H3)methylpyridazine-3-carboxamide] | 0.48 | – | – | –
CCN(C)C(=O)Nc1cc(Nc2nccc(-c3cnn(C)n3)c2OC)c(C(=O)NC)nn1 [Example 58, 6-{[ethyl(methyl)carbamoyl]amino}-4-{[3-methoxy-4-(2-methyl-2H-1,2,3-triazol-4-yl)pyridin-2-yl]amino}-N—(^2H3)methylpyridazine-3-carboxamide] | 0.23 | – | – | –
CNC(=O)c1nnc(NC(=O)N(C)C(C)C)cc1Nc1nccc(-c2cnn(C)n2)c1OC [Example 59, 4-{[3-methoxy-4-(2-methyl-2H-1,2,3-triazol-4-yl)pyridin-2-yl]amino}-N—(^2H3)methyl-6-{[methyl(propan-2-yl)carbamoyl]amino}pyridazine-3-carboxamide] | 0.25 | – | – | –
CC(C)(C)NCC(O)COc1cccc2c1CC(O)C(O)C2 (stereo not shown) [Nadolol, reference compound] | – | 2 ± 0.9 | 1.3 | 2.5 ± 1.1

Continued by falling IC50 [1], values first:

IC50 [1] [µM] | Papp A→B at 2 h, 3 μM (in vitro) [×10⁻⁶ cm/s] | efflux ratio at 2 h, 3 μM (in vitro) | Papp B→A at 2 h, 3 μM (in vitro) [×10⁻⁶ cm/s] | SMILES
0.43 | 18.8 | 0.7 | – | [2H]C([2H])([2H])NC(=O)c1nnc(NC(=O)C2CC2)cc1Nc1cc(F)c(C)c(-c2cnn(C)n2)c1OC [Example 19, 6-(cyclopropanecarboxamido)-4-((5-fluoro-2-methoxy-4-methyl-3-(2-methyl-2H-1,2,3-triazol-4-yl)phenyl)amino)-N-(methyl-d3)pyridazine-3-carboxamide]
0.33 | 51.1 | 0.7 | – | [2H]C([2H])([2H])NC(=O)c1nnc(NC(=O)C2CC2)cc1Nc1c(F)ccc(-c2cnn(C)n2)c1OC [Example 22, 6-(cyclopropanecarboxamido)-4-((6-fluoro-2-methoxy-3-(2-methyl-2H-1,2,3-triazol-4-yl)phenyl)amino)-N-(methyl-d3)pyridazine-3-carboxamide]
0.29 | – | – | – | CCn1ncc(-c2c(F)ccc(Nc3cc(NC(=O)C4CC4)nnc3C(=O)NC)c2OC)n1 [Example 10, 6-cyclopropaneamido-4-{[3-(2-ethyl-2H-1,2,3-triazol-4-yl)-4-fluoro-2-methoxyphenyl]amino}-N—(^2H3)methylpyridazine-3-carboxamide]
0.29 | – | – | – | CNC(=O)c1nnc(NC(=O)C2CC2)cc1Nc1cccc(-c2cnn(C)n2)c1OC(F)F [Example 56, 6-cyclopropaneamido-4-{[2-(difluoromethoxy)-3-(2-methyl-2H-1,2,3-triazol-4-yl)phenyl]amino}-N—(^2H3)methylpyridazine-3-carboxamide]
0.23 | 1.9 | < 0.8 | – | [2H]C([2H])([2H])NC(=O)c1nnc(Nc2ccccn2)cc1Nc1cccc(-c2cnn(C)n2)c1OC [Example 8, 4-{[2-methoxy-3-(2-methyl-2H-1,2,3-triazol-4-yl)phenyl]amino}-N—(^2H3)methyl-6-[(pyridin-2-yl)amino]pyridazine-3-carboxamide]
0.23 | – | – | – | CNC(=O)c1nnc(NC(=O)C2CC2)cc1Nc1cc(F)cc(-c2cnn(C3CC3)n2)c1OC [Example 12, 6-cyclopropaneamido-4-{[3-(2-cyclopropyl-2H-1,2,3-triazol-4-yl)-5-fluoro-2-methoxyphenyl]amino}-N—(^2H3)methylpyridazine-3-carboxamide]
0.23 | – | – | – | CNC(=O)c1nnc(NC(=O)C2CC2)cc1Nc1ccc(F)c(-c2cnn(C)n2)c1OC [Example 18, 6-cyclopropaneamido-4-{[4-fluoro-2-methoxy-3-(2-methyl-2H-1,2,3-triazol-4-yl)phenyl]amino}-N—(^2H3)methylpyridazine-3-carboxamide]
0.23 | 33.6 | 0.5 | – | [2H]C([2H])([2H])NC(=O)c1nnc(NC(=O)C2CC2)cc1Nc1cc(CC)cc(-c2cnn(C)n2)c1OC [Example 21, 6-(cyclopropanecarboxamido)-4-((5-ethyl-2-methoxy-3-(2-methyl-2H-1,2,3-triazol-4-yl)phenyl)amino)-N-(methyl-d3)pyridazine-3-carboxamide]
0.22 | – | – | – | CNC(=O)c1nnc(NC(=O)C2CC2)cc1Nc1cccc(-c2cnn(CC(F)F)n2)c1OC [Example 3, 6-cyclopropaneamido-4-({3-[2-(2,2-difluoroethyl)-2H-1,2,3-triazol-4-yl]-2-methoxyphenyl}amino)-N—(^2H3)methylpyridazine-3-carboxamide]
0.21 | 17 | 1.1 | – | [2H]C([2H])([2H])NC(=O)c1nnc(NC(=O)C2CC2)cc1Nc1cccc(-c2nn(C)nc2CC)c1OC [Example 20, 6-(cyclopropanecarboxamido)-4-((3-(5-ethyl-2-methyl-2H-1,2,3-triazol-4-yl)-2-methoxyphenyl)amino)-N-(methyl-d3)pyridazine-3-carboxamide]
0.19 | – | – | – | CNC(=O)c1nnc(NC(=O)C2CC2)cc1Nc1nccc(-c2cnn(C3CC3)n2)c1OC [Example 14, 6-cyclopropaneamido-4-{[4-(2-cyclopropyl-2H-1,2,3-triazol-4-yl)-3-methoxypyridin-2-yl]amino}-N—(^2H3)methylpyridazine-3-carboxamide]
0.18 | 29.5 | 1.2 | – | [2H]C([2H])([2H])NC(=O)c1nnc(NC(=O)C2CC2)cc1Nc1cccc(-c2nn(C)nc2C)c1OC [Example 23, 6-(cyclopropane-carboxamido)-4-((3-(2,5-dimethyl-2H-1,2,3-triazol-4-yl)-2-methoxyphenyl)amino)-N-(methyl-d3)pyridazine-3-carboxamide]
0.13 | – | – | – | CNC(=O)c1nnc(NC(=O)C2CC2)cc1Nc1nccc(-c2cnn(C)n2)c1OC(F)F [Example 60, 6-cyclopropaneamido-4-{[3-(difluoromethoxy)-4-(2-methyl-2H-1,2,3-triazol-4-yl)pyridin-2-yl]amino}-N—(^2H3)methylpyridazine-3-carboxamide]
0.04 | – | – | – | CNC(=O)c1nnc(NC(=O)C2CC2)cc1Nc1cc(C)cc(-c2cnn(C)n2)c1OC [Example 17, 6-cyclopropaneamido-4-{[2-methoxy-5-methyl-3-(2-methyl-2H-1,2,3-triazol-4-yl)phenyl]amino}-N—(^2H3)methylpyridazine-3-carboxamide]
0.02 | 7.4 | 0.9 | – | [2H]C([2H])([2H])NC(=O)c1nnc(Nc2cc(C)n(C)n2)cc1Nc1cccc(-c2cnn(C)n2)c1OC [Example 6, 6-[(1,5-dimethyl-1H-pyrazol-3-yl)amino]-4-{[2-methoxy-3-(2-methyl-2H-1,2,3-triazol-4-yl)phenyl]amino}-N—(^2H3)methylpyridazine-3-carboxamide]
0.02 | – | – | – | CNC(=O)c1nnc(NC(=O)C2CC2)cc1Nc1cccc(-c2cnn(C)n2)c1OC [Example 52, 6-cyclopropaneamido-4-({2-methoxy-3-[2-(^2H3)methyl-2H-1,2,3-triazol-4-yl]phenyl}amino)-N—(^2H3)methylpyridazine-3-carboxamide]
